In patent publication US20260355196A1, “INHIBITORS AND DEGRADERS OF PIP4K PROTEIN” (Larkspur Biosciences, Inc., priority 2023, published 2026):

Target: T1, PIP4K2C (Homo sapiens, UniProt Q8TBX8)
T1 sequence (Q8TBX8 1-421): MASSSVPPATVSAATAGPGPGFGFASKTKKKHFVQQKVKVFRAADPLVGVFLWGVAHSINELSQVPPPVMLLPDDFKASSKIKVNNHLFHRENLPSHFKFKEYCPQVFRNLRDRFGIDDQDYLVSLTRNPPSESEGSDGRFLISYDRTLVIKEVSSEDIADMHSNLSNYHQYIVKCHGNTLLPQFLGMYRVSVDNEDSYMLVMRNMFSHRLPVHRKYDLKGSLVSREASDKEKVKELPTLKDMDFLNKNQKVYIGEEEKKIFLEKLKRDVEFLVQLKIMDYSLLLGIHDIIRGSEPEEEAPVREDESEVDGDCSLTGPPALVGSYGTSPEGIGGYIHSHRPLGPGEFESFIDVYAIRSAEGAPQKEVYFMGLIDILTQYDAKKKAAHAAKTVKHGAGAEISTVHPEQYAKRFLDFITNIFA
Assay: HiBiT PIP4K2C degradation assay in MOLT-4 cells (endogenous PIP4K2C C-terminally tagged with HiBiT)
Format: cell-based
Set-up: untagged in primary human PBMCs and monocyte-derived dendritic cells
Settings: 6 hours of incubation time, rather than 24 hours; MOLT-4, top concentration 10 micromolar; read-out: HiBIT-degradation MOLT4 PIP4k2C DC50 (6 hours, marked *)
Procedure, shortened: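 MOLT-4 cells with endogenous PIP4K2C C-terminally HiBiT-tagged by CRISPR were treated with a 10-point, 3-fold dilution series from 10 micromolar, in duplicate, for 24 h or 6 h at 37 C. Remaining tagged protein read by HiBiT lytic luminescence; DC50 from Hill-equation fit.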

Structure (SMILES)	DC50 [nM]
O=C1CC[C@H](Nc2ccc(N3CCN([C@H]4CC[C@H](NC(=O)[C@H]5CC[C@H](Nc6ncc(F)c(-c7cccc(-n8ccccc8=O)c7)n6)CC5)CC4)CC3)c(F)c2)C(=O)N1 (single isomer, unassigned) [Compound 436]	< 500
O=C1CCC(n2c(=O)oc3cc(N4CCC(CCN5CCN(C(=O)[C@@H]6CCC[C@H](Nc7ncc(F)c(-c8cccc(-n9ccccc9=O)c8)n7)C6)CC5)CC4)ccc32)C(=O)N1 (relative stereo) [Compound 386, 3-(6-(4-(2-(4-(cis-3-((5-fluoro-4-(3-(2-oxopyridin-1(2H)-yl)phenyl)pyrimidin-2-yl)amino)cyclohexane-1-carbonyl)piperazin-1-yl)ethyl)piperidin-1-yl)-2-oxobenzo[d]oxazol-3 (2H)-yl)piperidine-2,6-dione]	< 500
O=C1CC[C@@H](Nc2ccc(N3CCN([C@H]4CC[C@H](C(=O)N[C@H]5CC[C@H](Nc6ncc(F)c(-c7cccc(N8CCCCC8=O)c7)n6)CC5)CC4)CC3)c(F)c2)C(=O)N1 (single isomer, unassigned) [Compound 445]	< 500
O=C1CCC(Nc2ccc(C3CCN([C@H]4CC[C@H](C(=O)N[C@H]5CC[C@H](Nc6ncc(F)c(-c7cccc(N8CCCOC8=O)c7)n6)CC5)CC4)CC3)c(F)c2)C(=O)N1 (stereo partly drawn) [Compound 576, trans-(1r,4R)-4-(4-(4-((2,6-dioxopiperidin-3-yl)amino)-2-fluorophenyl)piperidin-1-yl)-N-((1r,4R)-4-((5-fluoro-4-(3-(2-oxo-1,3-oxazinan-3-yl)phenyl)pyrimidin-2-yl)amino)cyclohexyl)cyclohexane-1-carboxamide]	< 500
O=C1CCC(Nc2ccc(N3CCN([C@H]4CC[C@H](NC(=O)[C@H]5CC[C@H](Nc6ncc(F)c(-c7cccc(N8CCCCC8=O)c7)n6)CC5)CC4)CC3)c(F)c2)C(=O)N1 (stereo partly drawn) [Compound 564, (1r,4R)—N-((1r,4R)-4-(4-(4-((2,6-dioxopiperidin-3-yl)amino)-2-fluorophenyl)piperazin-1-yl)cyclohexyl)-4-((5-fluoro-4-(3-(2-oxopiperidin-1-yl)phenyl)pyrimidin-2-yl)amino)cyclohexane-1-carboxamide]	< 500
O=C1CCC(Nc2ccc(N3CCN(CC4(O)CCN(C(=O)[C@H]5CC[C@H](Nc6ncc(F)c(-c7cccc(N8CCCCC8=O)c7)n6)CC5)CC4)CC3)c(F)c2)C(=O)N1 (stereo partly drawn) [Compound 582, trans-3-((3-fluoro-4-(4-((1-(4-((5-fluoro-4-(3-(2-oxopiperidin-1-yl)phenyl)pyrimidin-2-yl)amino)cyclohexane-1-carbonyl)-4-hydroxypiperidin-4-yl)methyl)piperazin-1-yl)phenyl)amino)piperidine-2,6-dione]	< 500
O=C1CCC(Nc2ccc(N3CCC(N4CCC(C(=O)N[C@H]5CC[C@H](Nc6ncc(F)c(-c7cccc(C8CC8)c7)n6)CC5)CC4)CC3)c(F)c2)C(=O)N1 (stereo partly drawn) [Compound 504, trans-N-(4-((4-(3-cyclopropylphenyl)-5-fluoropyrimidin-2-yl)amino)cyclohexyl)-1′-(4-((2,6-dioxopiperidin-3-yl)amino)-2-fluorophenyl)-[1,4′-bipiperidine]-4-carboxamide]	< 500

Now from value to compound:

DC50 [nM]	Structure (SMILES)
< 500	O=C1CC[C@@H](Nc2ccc(C3CCN([C@H]4CC[C@H](C(=O)N[C@H]5CC[C@H](Nc6ncc(F)c(-c7cccc(N8CCCCC8=O)c7)n6)CC5)CC4)CC3)c(F)c2)C(=O)N1 (single isomer, unassigned) [Compound 593]
< 500	O=C1CCC(Nc2ccc(C3CCN(C4CCN(C(=O)O[C@H]5CC[C@H](Nc6ncc(F)c(-c7cccc(N8CCCOC8=O)c7)n6)CC5)CC4)CC3)c(F)c2)C(=O)N1 (stereo partly drawn) [Compound 677, trans-4-((5-fluoro-4-(3-(2-oxo-1,3-oxazinan-3-yl)phenyl)pyrimidin-2-yl)amino)cyclohexyl 4-(4-((2,6-dioxopiperidin-3-yl)amino)-2-fluorophenyl)-[1,4′-bipiperidine]-1′-carboxylate]
< 500	O=C1CCC(Nc2ccc(C3CCN(C4CCC(C(=O)N[C@H]5CC[C@H](Nc6ncc(F)c(-c7cccc(-n8ccccc8=O)c7)n6)CC5)CC4F)CC3)c(F)c2)C(=O)N1 (stereo partly drawn) [Compound 694, (1R,3S,4R)-4-(4-(4-((2,6-dioxopiperidin-3-yl)amino)-2-fluorophenyl)piperidin-1-yl)-3-fluoro-N-((trans)-4-((5-fluoro-4-(3-(2-oxopyridin-1 (2H)-yl)phenyl)pyrimidin-2-yl)amino)cyclohexyl)cyclohexane-1-carboxamide]
< 500	O=C1CC[C@H](Nc2ccc(N3CCC(N4CCC(O)(C(=O)N[C@H]5CC[C@H](Nc6ncc(F)c(-c7cccc(-n8ccccc8=O)c7)n6)CC5)CC4)CC3)c(F)c2)C(=O)N1 (single isomer, unassigned) [Compound 594]
< 500	O=C1CCC(Nc2ccc(N3CCC(N4CCC(C(=O)N[C@H]5CC[C@H](Nc6ncc(F)c(-c7cccc(-c8ccccc8)c7)n6)CC5)CC4)CC3)c(F)c2)C(=O)N1 (stereo partly drawn) [Compound 649, trans-N-(4-((4-([1,1′-biphenyl]-3-yl)-5-fluoropyrimidin-2-yl)amino)cyclohexyl)-1′-(4-((2,6-dioxopiperidin-3-yl)amino)-2-fluorophenyl)-[1,4′-bipiperidine]-4-carboxamide]
< 500	O=C1CCC(Nc2ccc(N3CCC(N4CC5(CC(OC(=O)N6CCC(Nc7ncc(F)c(-c8cccc(-n9ccccc9=O)c8)n7)CC6)C5)C4)CC3)c(F)c2)C(=O)N1 (stereo not shown) [Compound 637, 2-(1-(4-((2,6-dioxopiperidin-3-yl)amino)-2-fluorophenyl)piperidin-4-yl)-2-azaspiro[3.3]heptan-6-yl 4-((5-fluoro-4-(3-(2-oxopyridin-1 (2H)-yl)phenyl)pyrimidin-2-yl)amino)piperidine-1-carboxylate]

Same assay, conditions: 24 hours incubation, MOLT-4, top concentration 10 micromolar; read-out: HiBIT-degradation MOLT4 PIP4k2C 24 hours DC50

DC50 [nM]	Structure (SMILES)
< 500	O=C1CCC(n2c(=O)oc3cc(C4CCN(C5CCN(CCC(=O)N6CCC(Nc7ncc(F)c(-c8cccc(-n9ccccc9=O)c8)n7)CC6)CC5)CC4)ccc32)C(=O)N1 (stereo not shown) [Compound 353, 3-(6-(1′-(3-(4-((5-fluoro-4-(3-(2-oxopyridin-1(2H)-yl)phenyl)pyrimidin-2-yl)amino)piperidin-1-yl)-3-oxopropyl)-[1,4′-bipiperidin]-4-yl)-2-oxobenzo[d]oxazol-3 (2H)-yl)piperidine-2,6-dione]
< 500	Cn1c(=O)n(C2CCC(=O)NC2=O)c2ccc(C3CCN(C(=O)CN4CCC(C(=O)N5CCC(Nc6ncc(Cl)c(-c7cccc(-c8ccccc8)c7)n6)CC5)CC4)CC3)cc21 (stereo not shown) [Compound 46, 3-(5-(1-(2-(4-(4-((4-([1,1′-biphenyl]-3-yl)-5-chloropyrimidin-2-yl)amino)piperidine-1-carbonyl)piperidin-1-yl)acetyl)piperidin-4-yl)-3-methyl-2-oxo-2,3-dihydro-1H-benzo[d]imidazol-1-yl)piperidine-2,6-dione]
< 500	Cn1c(=O)n(C2CCC(=O)NC2=O)c2ccc(C3CCN(C4CCN(CCC(=O)N5CCC(Nc6ncc(Cl)c(-c7cccc(-c8ccc(F)cc8)c7)n6)CC5)CC4)CC3)cc21 (stereo not shown) [Compound 300, 3-(5-(1′-(3-(4-((5-chloro-4-(4′-fluoro-[1,1′-biphenyl]-3-yl)pyrimidin-2-yl)amino)piperidin-1-yl)-3-oxopropyl)-[1,4′-bipiperidin]-4-yl)-3-methyl-2-oxo-2,3-dihydro-1H-benzo[d]imidazol-1-yl)piperidine-2,6-dione]
< 500	O=C1CCC(Nc2ccc(C3CCN(CC(=O)N4CCC5(C4)CN(C(=O)[C@H]4CCC[C@@H](Nc6ncc(Cl)c(-c7cccc(-c8ccc(F)cc8)c7)n6)C4)C5)CC3)c(F)c2)C(=O)N1 (relative stereo) [Compound 284, cis-3-((4-(1-(2-(2-(3-((5-chloro-4-(4′-fluoro-[1,1′-biphenyl]-3-yl)pyrimidin-2-yl)amino)cyclohexane-1-carbonyl)-2,6-diazaspiro[3.4]octan-6-yl)-2-oxoethyl)piperidin-4-yl)-3-fluorophenyl)amino)piperidine-2,6-dione]
< 500	Cn1c(=O)n(C2CCC(=O)NC2=O)c2ccc(C3CCN(CCC4CCN(C(=O)[C@@H]5CCC[C@H](Nc6ncc(F)c(-c7cccc(-n8ccccc8=O)c7)n6)C5)CC4)CC3)cc21 (stereo partly drawn) [Compound 335, 3-(5-(1-(2-(1-((1R,3S)-3-((5-fluoro-4-(3-(2-oxopyridin-1(2H)-yl)phenyl)pyrimidin-2-yl)amino)cyclohexane-1-carbonyl)piperidin-4-yl)ethyl)piperidin-4-yl)-3-methyl-2-oxo-2,3-dihydro-1H-benzo[d]imidazol-1-yl)piperidine-2,6-dione]
< 500	O=C1CCC(Nc2ccc(C3CCN(CC4CCN(CC(=O)N5CCC(Nc6ncc(F)c(-c7cccc(-c8ccc[nH]c8=O)c7)n6)CC5)CC4)CC3)c(F)c2)C(=O)N1 (stereo not shown) [Compound 364, 3-((3-fluoro-4-(1-((1-(2-(4-((5-fluoro-4-(3-(2-oxo-1,2-dihydropyridin-3-yl)phenyl)pyrimidin-2-yl)amino)piperidin-1-yl)-2-oxoethyl)piperidin-4-yl)methyl)piperidin-4-yl)phenyl)amino)piperidine-2,6-dione]
